Measurements: ChEMBL document CHEMBL3792292, “Development of a potent and selective FLT3 kinase inhibitor by systematic expansion of a non-selective fragment-screening hit” (Bioorg Med Chem Lett, 2016)

What was measured:
[1] = target: T1, Tyrosine-protein kinase JAK3 (Homo sapiens) (UniProt P52333); assay: Inhibition of human N-terminal His-tagged JAK3 catalytic domain (795 to 1124 residues) expressed in baculovirus expression system using fluorescence labelled srctide as substrate at 50 times IC50 by electrophoretic mobility shift assay relative to control
T1 sequence (whole entry): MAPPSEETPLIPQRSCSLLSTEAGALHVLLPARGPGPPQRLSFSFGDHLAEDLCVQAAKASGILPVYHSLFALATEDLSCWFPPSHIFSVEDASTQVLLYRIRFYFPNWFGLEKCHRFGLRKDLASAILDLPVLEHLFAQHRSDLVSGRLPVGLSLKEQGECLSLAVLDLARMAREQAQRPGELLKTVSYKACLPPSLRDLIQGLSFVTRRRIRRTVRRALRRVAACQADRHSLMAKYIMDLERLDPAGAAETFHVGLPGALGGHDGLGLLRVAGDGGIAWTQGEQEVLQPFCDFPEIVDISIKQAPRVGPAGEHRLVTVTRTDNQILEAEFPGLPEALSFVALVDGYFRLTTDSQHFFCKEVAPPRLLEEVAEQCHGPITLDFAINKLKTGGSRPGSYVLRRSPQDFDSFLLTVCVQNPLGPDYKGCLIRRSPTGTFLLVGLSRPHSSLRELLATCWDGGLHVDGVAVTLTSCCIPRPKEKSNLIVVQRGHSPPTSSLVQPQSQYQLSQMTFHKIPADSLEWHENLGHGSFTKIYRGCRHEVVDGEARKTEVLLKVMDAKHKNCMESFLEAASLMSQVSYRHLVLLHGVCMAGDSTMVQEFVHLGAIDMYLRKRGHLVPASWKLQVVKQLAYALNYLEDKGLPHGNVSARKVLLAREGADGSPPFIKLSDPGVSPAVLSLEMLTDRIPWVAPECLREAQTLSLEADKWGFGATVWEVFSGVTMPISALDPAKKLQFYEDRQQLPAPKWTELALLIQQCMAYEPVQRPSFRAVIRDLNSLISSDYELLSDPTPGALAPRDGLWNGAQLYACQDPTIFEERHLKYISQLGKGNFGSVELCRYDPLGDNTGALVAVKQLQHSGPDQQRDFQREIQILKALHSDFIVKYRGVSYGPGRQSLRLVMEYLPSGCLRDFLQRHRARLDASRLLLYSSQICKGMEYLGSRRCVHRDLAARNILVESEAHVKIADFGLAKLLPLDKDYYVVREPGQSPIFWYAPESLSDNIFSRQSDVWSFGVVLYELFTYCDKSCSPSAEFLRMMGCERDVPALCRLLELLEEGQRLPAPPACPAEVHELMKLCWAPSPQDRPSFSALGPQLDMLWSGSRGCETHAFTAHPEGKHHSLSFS

[2] = target: Hepatocyte growth factor receptor (Homo sapiens) (UniProt P08581); assay: Inhibition of human N-terminal GST-tagged MET cytoplasmic domain (956 to 1390 residues) expressed in baculovirus expression system using fluorescence labelled srctide as substrate at 50 times IC50 by electrophoretic mobility shift assay relative to control
[3] = target: Platelet-derived growth factor receptor alpha (Homo sapiens) (UniProt P16234); assay: Inhibition of human N-terminal GST-tagged PDGFRalpha cytoplasmic domain (550 to 1089 residues) expressed in baculovirus expression system using fluorescence labelled CSKtide as substrate at 50 times IC50 by electrophoretic mobility shift assay relative to control
[4] = target: Angiopoietin-1 receptor (Homo sapiens) (UniProt Q02763); assay: Inhibition of human N-terminal GST-tagged TIE2 receptor cytoplasmic domain (771 to 1124 residues) expressed in baculovirus expression system using fluorescence labelled Blk/Lyntide as substrate at 50 times IC50 by electrophoretic mobility shift assay relative to control
[5] = target: Dual specificity tyrosine-phosphorylation-regulated kinase 1B (Homo sapiens) (UniProt Q9Y463); assay: Inhibition of full length human N-terminal GST-tagged DYRK1B (1 to 629 residues) expressed in baculovirus expression system using fluorescence labelled DYRKtide-F as substrate at 50 times IC50 by electrophoretic mobility shift assay relative to control
[6] = target: MAP kinase-activated protein kinase 2 (Homo sapiens) (UniProt P49137); assay: Inhibition of full length human N-terminal GST-tagged MAPKAPK2 (1 to 400 residues) expressed in baculovirus expression system coexpressing human His-tagged p38beta (1 to 364 residues)/MAP2K6 (1 to 334 residues) using fluorescence labelled GS peptide substrate at 50 times IC50 by electrophoretic mobility shift assay relative to control
[7] = target: Mitogen-activated protein kinase 14 (Homo sapiens) (UniProt Q16539); assay: Inhibition of human N-terminal GST-tagged p38alpha (9 to 352 residues) expressed in Escherichia coli using fluorescence labelled modified Erktide as substrate at 50 times IC50 by electrophoretic mobility shift assay relative to control
[8] = target: [Pyruvate dehydrogenase (acetyl-transferring)] kinase isozyme 1, mitochondrial (Homo sapiens) (UniProt Q15118); assay: Inhibition of full length human N-terminal GST-tagged PDK1 (1 to 436 residues) expressed in baculovirus expression system using fluorescence labelled PDHKtide as substrate at 50 times IC50 by electrophoretic mobility shift assay relative to control
[9] = target: Serine/threonine-protein kinase pim-1 (Homo sapiens) (UniProt P11309); assay: Inhibition of full length human N-terminal His-tagged PIM1 (1 to 313 residues) expressed in baculovirus expression system using fluorescence labelled S6K2 peptide substrate at 50 times IC50 by electrophoretic mobility shift assay relative to control

SMILES | inhibition [1] [%] | inhibition [2] [%] | inhibition [3] [%] | inhibition [4] [%] | inhibition [5] [%] | inhibition [6] [%] | inhibition [7] [%] | inhibition [8] [%] | inhibition [9] [%]
O=C(Nc1ccc(C(=O)N2CCN(c3ccccc3)CC2)cc1)c1n[nH]c2ccccc12 | 26.4 | -0.6 | 47.2 | -2 | 29.4 | -7.5 | -1.8 | 1.9 | 3
O=C(Nc1ccc(CN2CCN(c3ccccc3)CC2)cc1)c1n[nH]c2ccccc12 | 9 | -0.4 | 9.8 | -2.5 | 12.7 | 9.7 | -2.6 | -2.8 | 6
O=C(Nc1ccccc1)c1n[nH]c2ccccc12 | 51.9 | 4.6 | 26.3 | 3 | 53.6 | 5.1 | 6.9 | -2.1 | 3.1
